Source: patent US20100184771A1, “Bicyclic Heterocyclic Compound” (ONO PHARMACEUTICAL CO., LTD., priority 2005, published 2010)

How the values were obtained:
human CRF receptor I [1] = target: T1, human CRF receptor I (Homo sapiens, UniProt P34998); assay: Receptor antagonistic activity (cyclic AMP assay); format: cell-based; details: human/rat CRF stimulation, 37° C., 15 minutes; read-out: IC50 value, antagonistic activity against CRF (accumulated cyclic AMP)
T1 construct: expressed in transfected cells; host or cells: CHO-K1
T1 sequence (P34998 24-415): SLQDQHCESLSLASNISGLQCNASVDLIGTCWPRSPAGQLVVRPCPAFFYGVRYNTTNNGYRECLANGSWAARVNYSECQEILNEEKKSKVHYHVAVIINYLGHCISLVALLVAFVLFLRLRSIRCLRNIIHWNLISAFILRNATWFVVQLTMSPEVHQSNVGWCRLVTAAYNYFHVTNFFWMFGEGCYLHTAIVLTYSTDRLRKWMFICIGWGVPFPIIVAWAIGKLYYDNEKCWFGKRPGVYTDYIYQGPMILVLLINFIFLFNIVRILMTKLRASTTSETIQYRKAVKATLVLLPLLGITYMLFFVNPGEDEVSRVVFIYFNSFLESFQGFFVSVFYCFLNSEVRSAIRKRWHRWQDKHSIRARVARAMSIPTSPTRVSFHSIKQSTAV
Experimental: The forced expression cell strain of the human CRF receptor I was cultured at 37° C. under 5% carbon dioxide and 95% air by using a Ham's F-12 medium (F-12 nutrient mixture) containing 10% bovine fetal serum and 1% antibiotic substance-antifungal agent. On the previous day before the cyclic AMP was measured, the cells were inoculated into a 96-well plate in an amount of 1×10^4 cell/well. On the measurement day, the cells were washed twice with a Ham's F-12 medium, whereby a solution of Ham's F-12 medium/1 mM 3-isobutyl-1-methylxanthine (assay medium) (178 μL) was added to each well. After the incubation at 37° C. for 10 minutes, test drug solutions (2 μL) in various concentrations were added thereto, or DMSO (2 μL) was added to a CRF group and a blank group. An assay medium (20 μL) containing 10 nM human/rat CRF was added to wells of a compound group and the CRF group. An assay medium (20 μL) containing 0.00001% acetic acid was added to the blank group. Each group was further incubated at 37° C. for 15 minutes. […] The accumulated cyclic AMP amounts were calculated by subtracting mean values of corresponding 2 wells in the blank group from that of 2 wells. The IC50 values were calculated with non-linear regression analysis by defining logarithm concentration of the compound as independent variable and an accumulated cyclic AMP amount as dependent variable.

human CRF receptor I [2] = target: T1, human CRF receptor I; assay: Binding assay (125I-CRF, membrane fraction of CHO-K1 cells with forced expression of the receptor); details: 125I-CRF 0.25 nM, room temperature, 2 hours
Experimental: The forced-expression cell strain of the human CRF receptor I (parent strain is CHO-K1 cell) was cultured until the cell was confluent and collected with a scraper. The collected cells were washed twice with PBS, and were suspended with an ice-colded binding assay buffer (Tris-HCl (50 mM, pH 7.0), EDTA (2 mM, pH 8.0), and MgCl2 (10 mM)). After fractured with a dounce-type homogenizer, the suspended cells were centrifuged at 10,000 g, and a membrane fraction was collected. The collected membrane fraction was resuspended with a little amount of the binding assay buffer, thereafter diluted with the binding assay buffer so as to have a concentration of 1 mg/mL. The obtained membrane fraction was used for a binding assay.
^125I-CRF was diluted with the binding assay buffer so as to have a concentration of 0.5 nM, whereby 50 μL of the diluted ^125I-CRF was added to a siliconized 1.5-mL tube. Next, test drugs diluted at appropriate times, such as DMSO (for general binding) or 100 μM of CRF (for non-specific binding), was added to a […]. Finally, 50 μL of the membrane fraction was added thereto and the reaction was started (final concentration of ^125I-CRF was 0.25 nM). The tube was incubated at room temperature for 2 hours. […] A membrane binding count was measured using a γ counter. The specific binding count was obtained by subtracting the non-specific count from the measured count.

swim-stressed SD rat = assay: Elevated plus maze test with swim-stressed rat; format: in vivo; details: orally, 1 hour before the test
Experimental: 2 open arms with the same lengths (50×10 cm) and 2 close arms (a 30 cm wall was provided) with the same lengths (50×10 cm) were arranged in orthogonal manner at a height of 50 cm from the floor to provide an elevated crossroad maze system. In 70 cm above the both open arms, white light was provided, whereby illuminance was maintained at constant.
A 7-week-old SD rat (CHARLES RIVER LABORATORIES JAPAN) was forcedly made to swim for 120 seconds in a pool (40×30×38 cm) at 22° C. of water temperature and 25 cm of water depth. After 9 minutes of soaking stress loading, the rat was put on the center of the system. The activity for 5 minutes of the rat was analyzed with an automatic activity-tracking analysis system (EthoVision Version 3.0, Noldus Information Technology) to calculate the dwell time (second) on the open arm.
Note that no soaking stress was loaded on the control group. In addition, 20% Solutol/HS15 (5 mL/Kg) was orally administered to the vehicle group and test drugs in various concentrations were orally administrated to the test drug administration group 1 hour before the test.

## CCC(CC)c1cc(C)n2nc(-c3ccc(OC)cc3C)c(C)cc12 [Example 8, 5-(1-ethylpropyl)-2-(4-methoxy-2-methylphenyl)-3,7-dimethylpyrrolo[1,2-b]pyridazine]
Human CRF receptor I [1]
  IC50: 0.0049 µM
Human CRF receptor I [2]
  IC50: 0.0164 µM
swim-stressed SD rat; 10 mg/kg
  dwell time on the open arm compared to that of the vehicle group: favorably elongated the dwell time on the open arm
swim-stressed SD rat
  dwell time on the open arm compared to that of the vehicle group: favorably elongated the dwell time on the open arm
